Reference: patent US8409833B2 (Hokko Chemical Industry Co., Ltd., priority 2003, dated 2013)

System: NAD^+-independent myo-inositol 2-dehydrogenase
Test: NAD^+-independent myo-inositol 2-dehydrogenase activity (oxidized DCIP, absorbance at 600 nm): substrate specificity, Km, heavy metal inhibition
Conditions: for Km: enzyme derived from Acetobacter sp. AB10253, sugar concentration varied; for reaction of the enzyme with the sugar: sugar at a final concentration of 50 mM
Experimental: The enzyme activity of each fraction was measured by a standard method: that is, the change in absorbance at 600 nm of 1 ml of a solution containing 50 μl of the protein solution, 100 mM phosphate buffer (pH 5.0), 5 mg of myo-inositol, and 0.4 mg of 2,4-dichloroindophenol (oxidized DCIP) was calculated into a reaction rate, and an activity to oxidize 1 μmol of myo-inositol per minute was defined as one unit.
For measurement of the optimum pH, the enzyme activity was measured while changing a buffer and pH value. As the buffer, there were used 100 mM phosphate buffer (pH 3 to 8), 100 mM Tris buffer (pH 7 to 8), and 100 mM carbonate buffer (pH 8 to 11).
The substrate specificity of the target enzyme was determined by measuring the enzyme activity in a solution containing various sugars instead of myo-inositol at a final concentration of 50 mM.

Compound | Km | reaction of the enzyme with the sugar | also measured
OC1C(O)C(O)C(O)C(O)C1O [D-chiro-inositol] | 8.8 mM | – | –
[Sn+2] [Sn^2+ ion, reference compound] | – | – | enzyme activity relative to the activity in the absence of the ion (1 mM ion, 100 mM phosphate buffer (pH 5.0)): ≤ 1%
OC1C(O)C(O)C(O)C(O)C1O (stereo not drawn) [allo-inositol] | – | not to react | –
OC1C(O)C(O)C(O)C(O)C1O (stereo not drawn) [muco-inositol] | 14.5 mM | – | –
OC1C(O)[C@H](O)[C@H](O)C(O)[C@@H]1O (stereo partly drawn) [myo-inositol] | 20 mM | – | –
OC1C(O)[C@H](O)[C@H](O)C(O)[C@H]1O (stereo partly drawn) [scyllo-inositol] | – | not to react | –
